The AC50 is the midpoint of the concentration-response curve, whichever way the signal moves.

For 11 compounds, AC50 results are on record in ChEMBL document CHEMBL5291721, “A preclinical secondary pharmacology resource illuminates target-adverse drug reaction associations of marketed drugs” (Nat Commun, 2023).

Molecules are shown by their SMILES. Bounds are passed on as bounds.

The target in one assay is T1, Adenosine receptor A1 (Homo sapiens, UniProt P30542).
T1 sequence (P30542 whole entry): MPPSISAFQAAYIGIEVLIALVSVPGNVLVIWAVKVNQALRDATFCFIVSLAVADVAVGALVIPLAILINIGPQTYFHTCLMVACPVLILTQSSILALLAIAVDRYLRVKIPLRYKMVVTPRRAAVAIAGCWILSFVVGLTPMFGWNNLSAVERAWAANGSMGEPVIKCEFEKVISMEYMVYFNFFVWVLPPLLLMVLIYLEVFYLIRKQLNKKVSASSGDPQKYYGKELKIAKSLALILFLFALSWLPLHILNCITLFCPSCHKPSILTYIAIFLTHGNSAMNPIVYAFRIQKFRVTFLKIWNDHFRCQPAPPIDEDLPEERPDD

The target in assay [1] is T2, Alpha-2A adrenergic receptor (Homo sapiens, UniProt P08913).
T2 sequence (P08913 whole entry): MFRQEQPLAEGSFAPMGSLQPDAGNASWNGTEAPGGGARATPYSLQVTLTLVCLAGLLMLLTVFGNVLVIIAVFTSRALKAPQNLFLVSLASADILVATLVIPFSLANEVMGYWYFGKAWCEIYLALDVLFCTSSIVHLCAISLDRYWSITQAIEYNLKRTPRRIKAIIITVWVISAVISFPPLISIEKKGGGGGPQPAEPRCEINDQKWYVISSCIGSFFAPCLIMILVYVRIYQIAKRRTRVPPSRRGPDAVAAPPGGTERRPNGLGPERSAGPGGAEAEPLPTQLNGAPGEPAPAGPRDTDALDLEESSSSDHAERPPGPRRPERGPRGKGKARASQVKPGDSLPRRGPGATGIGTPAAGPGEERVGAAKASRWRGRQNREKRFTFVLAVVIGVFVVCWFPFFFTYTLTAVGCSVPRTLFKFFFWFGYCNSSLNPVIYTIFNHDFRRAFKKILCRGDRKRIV
The class given is functional, cell-based.

In assay [2] the target is T3, Type-1 angiotensin II receptor (Homo sapiens, UniProt P30556).
T3 sequence (P30556 whole entry): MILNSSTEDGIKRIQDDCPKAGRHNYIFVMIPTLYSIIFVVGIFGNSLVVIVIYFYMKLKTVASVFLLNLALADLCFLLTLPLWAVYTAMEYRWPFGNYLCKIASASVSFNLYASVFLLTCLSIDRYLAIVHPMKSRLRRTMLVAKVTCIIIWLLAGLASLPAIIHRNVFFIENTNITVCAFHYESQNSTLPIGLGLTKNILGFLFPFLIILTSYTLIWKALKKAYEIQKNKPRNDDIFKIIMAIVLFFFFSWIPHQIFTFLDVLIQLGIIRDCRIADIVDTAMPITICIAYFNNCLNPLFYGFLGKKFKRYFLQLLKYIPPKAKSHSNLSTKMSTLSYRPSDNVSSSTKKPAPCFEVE

Assay [3] concerns the target T4, Muscarinic acetylcholine receptor M2 (Homo sapiens, UniProt P08172).
T4 sequence (P08172 whole entry): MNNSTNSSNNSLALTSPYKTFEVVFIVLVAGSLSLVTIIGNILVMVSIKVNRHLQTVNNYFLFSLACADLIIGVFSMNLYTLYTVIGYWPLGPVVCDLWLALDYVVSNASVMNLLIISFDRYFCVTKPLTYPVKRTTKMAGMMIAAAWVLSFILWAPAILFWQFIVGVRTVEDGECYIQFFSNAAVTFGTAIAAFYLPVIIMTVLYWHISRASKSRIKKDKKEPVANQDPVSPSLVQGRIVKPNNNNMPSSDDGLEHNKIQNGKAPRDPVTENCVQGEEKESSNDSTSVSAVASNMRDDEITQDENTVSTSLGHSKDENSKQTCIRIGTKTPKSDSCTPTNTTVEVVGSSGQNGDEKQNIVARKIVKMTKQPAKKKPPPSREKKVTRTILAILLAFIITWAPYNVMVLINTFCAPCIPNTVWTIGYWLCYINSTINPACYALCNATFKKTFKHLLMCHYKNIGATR
The class given is functional, cell-based.

In assay [4] the target is Muscarinic acetylcholine receptor M3 (Homo sapiens, UniProt P20309).
The target of a further assay is D(1A) dopamine receptor (Homo sapiens, UniProt P21728). The class given is functional, cell-based.
Another assay deals with Melanocortin receptor 3 (Homo sapiens, UniProt P41968).
Assay [5] concerns the target Delta-type opioid receptor (Homo sapiens, UniProt P41143).
The target in assay [6] is 3',5'-cyclic-AMP phosphodiesterase 4D (Homo sapiens, UniProt Q08499). It counts as functional.
For assay [7], the target named is T5, Equilibrative nucleoside transporter 1 (Homo sapiens, UniProt Q99808).
T5 sequence (Q99808 whole entry): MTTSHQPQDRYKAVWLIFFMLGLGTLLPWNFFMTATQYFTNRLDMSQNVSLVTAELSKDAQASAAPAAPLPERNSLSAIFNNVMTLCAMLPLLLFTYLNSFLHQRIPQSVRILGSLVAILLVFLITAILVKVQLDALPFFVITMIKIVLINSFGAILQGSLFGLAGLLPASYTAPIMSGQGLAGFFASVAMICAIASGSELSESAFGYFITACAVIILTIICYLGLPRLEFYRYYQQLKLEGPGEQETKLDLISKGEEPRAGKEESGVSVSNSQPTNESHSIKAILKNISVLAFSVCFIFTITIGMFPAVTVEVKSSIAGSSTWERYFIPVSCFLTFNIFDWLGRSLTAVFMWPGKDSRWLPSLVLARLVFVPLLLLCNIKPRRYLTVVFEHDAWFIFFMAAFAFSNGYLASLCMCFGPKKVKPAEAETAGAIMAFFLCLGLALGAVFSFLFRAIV

In assay [8] the target is Sodium-dependent noradrenaline transporter (Homo sapiens, UniProt P23975).
A further assay addresses D(3) dopamine receptor (Homo sapiens, UniProt P35462).
Note: assay procedure not described here.

Chain of 3',5'-cyclic-AMP phosphodiesterase 4D (Q08499 whole entry): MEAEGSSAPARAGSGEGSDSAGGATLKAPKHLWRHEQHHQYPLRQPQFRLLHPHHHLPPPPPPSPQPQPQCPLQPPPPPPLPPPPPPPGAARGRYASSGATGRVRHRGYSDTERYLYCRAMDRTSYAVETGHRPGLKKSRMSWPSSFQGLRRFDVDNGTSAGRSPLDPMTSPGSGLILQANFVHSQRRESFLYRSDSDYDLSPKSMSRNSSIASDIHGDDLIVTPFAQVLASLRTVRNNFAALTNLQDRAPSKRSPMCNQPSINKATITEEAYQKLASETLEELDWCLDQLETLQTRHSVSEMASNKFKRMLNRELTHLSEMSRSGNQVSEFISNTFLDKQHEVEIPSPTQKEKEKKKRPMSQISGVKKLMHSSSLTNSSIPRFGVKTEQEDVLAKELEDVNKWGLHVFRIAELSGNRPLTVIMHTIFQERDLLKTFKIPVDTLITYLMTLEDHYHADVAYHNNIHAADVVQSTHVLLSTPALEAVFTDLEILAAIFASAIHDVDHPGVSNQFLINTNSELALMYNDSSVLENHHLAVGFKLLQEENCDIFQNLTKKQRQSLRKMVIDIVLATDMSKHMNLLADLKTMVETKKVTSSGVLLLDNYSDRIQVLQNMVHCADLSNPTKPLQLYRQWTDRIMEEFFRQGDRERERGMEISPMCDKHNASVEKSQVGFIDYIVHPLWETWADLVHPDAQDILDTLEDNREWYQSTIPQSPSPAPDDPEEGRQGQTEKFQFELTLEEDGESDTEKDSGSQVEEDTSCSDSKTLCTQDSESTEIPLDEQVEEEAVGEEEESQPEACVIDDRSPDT
Chain of Sodium-dependent noradrenaline transporter (P23975 whole entry): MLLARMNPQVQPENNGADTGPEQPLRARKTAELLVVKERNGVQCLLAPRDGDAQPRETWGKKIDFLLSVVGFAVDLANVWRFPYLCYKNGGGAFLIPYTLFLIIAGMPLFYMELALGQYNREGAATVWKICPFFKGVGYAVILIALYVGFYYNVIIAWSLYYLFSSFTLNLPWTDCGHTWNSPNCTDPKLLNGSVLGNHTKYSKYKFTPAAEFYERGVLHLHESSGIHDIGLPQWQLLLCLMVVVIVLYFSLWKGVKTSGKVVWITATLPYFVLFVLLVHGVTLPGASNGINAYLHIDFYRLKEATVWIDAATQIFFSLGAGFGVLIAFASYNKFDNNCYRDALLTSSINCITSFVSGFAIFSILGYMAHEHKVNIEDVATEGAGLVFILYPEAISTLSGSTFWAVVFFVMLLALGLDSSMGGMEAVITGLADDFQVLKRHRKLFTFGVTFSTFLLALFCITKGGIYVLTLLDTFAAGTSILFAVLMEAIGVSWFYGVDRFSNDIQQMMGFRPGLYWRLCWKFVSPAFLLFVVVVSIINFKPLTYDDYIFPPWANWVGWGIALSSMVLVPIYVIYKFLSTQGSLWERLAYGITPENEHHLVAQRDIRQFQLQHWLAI
Chain of D(1A) dopamine receptor (P21728 whole entry): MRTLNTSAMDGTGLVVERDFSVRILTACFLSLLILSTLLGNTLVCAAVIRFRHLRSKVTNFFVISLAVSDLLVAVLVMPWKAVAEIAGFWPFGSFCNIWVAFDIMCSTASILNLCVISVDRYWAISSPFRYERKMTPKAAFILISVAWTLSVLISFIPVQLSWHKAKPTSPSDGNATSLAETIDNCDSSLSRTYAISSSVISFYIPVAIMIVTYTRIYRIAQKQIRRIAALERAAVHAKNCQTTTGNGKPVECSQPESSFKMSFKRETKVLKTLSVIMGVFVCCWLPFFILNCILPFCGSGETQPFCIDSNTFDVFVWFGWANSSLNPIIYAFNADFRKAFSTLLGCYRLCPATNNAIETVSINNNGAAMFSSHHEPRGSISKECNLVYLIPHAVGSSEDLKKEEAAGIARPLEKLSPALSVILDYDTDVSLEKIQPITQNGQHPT
Chain of Delta-type opioid receptor (P41143 whole entry): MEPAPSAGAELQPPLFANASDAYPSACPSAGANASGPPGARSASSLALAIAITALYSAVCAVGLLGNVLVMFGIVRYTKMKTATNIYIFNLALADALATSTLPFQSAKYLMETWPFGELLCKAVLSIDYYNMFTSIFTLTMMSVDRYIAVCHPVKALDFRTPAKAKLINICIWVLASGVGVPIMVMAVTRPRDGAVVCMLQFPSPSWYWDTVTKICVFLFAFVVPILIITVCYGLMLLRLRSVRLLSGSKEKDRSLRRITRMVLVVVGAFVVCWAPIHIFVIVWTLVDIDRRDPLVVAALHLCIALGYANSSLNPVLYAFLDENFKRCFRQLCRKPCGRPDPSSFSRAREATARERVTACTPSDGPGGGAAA
Chain of Muscarinic acetylcholine receptor M3 (P20309 whole entry): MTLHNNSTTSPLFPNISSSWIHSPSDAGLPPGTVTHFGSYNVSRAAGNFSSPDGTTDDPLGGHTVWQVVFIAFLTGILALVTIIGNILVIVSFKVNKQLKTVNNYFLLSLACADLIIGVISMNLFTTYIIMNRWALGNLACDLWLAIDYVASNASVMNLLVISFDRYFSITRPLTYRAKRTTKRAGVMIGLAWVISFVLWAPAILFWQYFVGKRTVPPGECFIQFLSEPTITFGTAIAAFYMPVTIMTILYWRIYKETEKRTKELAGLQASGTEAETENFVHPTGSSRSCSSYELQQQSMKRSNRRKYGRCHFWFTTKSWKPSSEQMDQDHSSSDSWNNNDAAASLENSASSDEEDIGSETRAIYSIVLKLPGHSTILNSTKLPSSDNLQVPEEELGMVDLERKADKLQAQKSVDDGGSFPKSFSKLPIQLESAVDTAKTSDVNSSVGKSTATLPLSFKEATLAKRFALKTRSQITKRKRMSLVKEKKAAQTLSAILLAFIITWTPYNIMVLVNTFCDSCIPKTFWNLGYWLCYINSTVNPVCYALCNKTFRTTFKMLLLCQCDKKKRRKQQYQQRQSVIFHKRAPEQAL
Chain of D(3) dopamine receptor (P35462 whole entry): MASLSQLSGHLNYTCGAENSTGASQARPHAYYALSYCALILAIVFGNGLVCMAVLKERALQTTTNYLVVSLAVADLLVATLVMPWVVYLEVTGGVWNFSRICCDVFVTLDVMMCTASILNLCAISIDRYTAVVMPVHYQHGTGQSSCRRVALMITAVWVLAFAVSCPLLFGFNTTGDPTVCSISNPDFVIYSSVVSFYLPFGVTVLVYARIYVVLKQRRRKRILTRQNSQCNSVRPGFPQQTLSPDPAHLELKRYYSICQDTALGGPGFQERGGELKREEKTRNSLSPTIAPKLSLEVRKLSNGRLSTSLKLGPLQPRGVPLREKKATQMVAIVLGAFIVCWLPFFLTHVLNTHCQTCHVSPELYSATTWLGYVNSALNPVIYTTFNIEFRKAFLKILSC
Chain of Melanocortin receptor 3 (P41968 whole entry): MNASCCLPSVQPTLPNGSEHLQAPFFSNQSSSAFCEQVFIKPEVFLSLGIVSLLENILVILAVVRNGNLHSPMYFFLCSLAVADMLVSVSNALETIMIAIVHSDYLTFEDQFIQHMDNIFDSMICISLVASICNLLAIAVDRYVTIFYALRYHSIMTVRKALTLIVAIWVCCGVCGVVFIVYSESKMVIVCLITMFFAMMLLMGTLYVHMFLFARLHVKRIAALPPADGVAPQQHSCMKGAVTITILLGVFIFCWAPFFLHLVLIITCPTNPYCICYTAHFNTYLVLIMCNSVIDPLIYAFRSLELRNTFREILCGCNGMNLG

Regarding `CN1C(=O)CCS(=O)(=O)C1c1ccc(Cl)cc1` (configuration not stated) [CHLORMEZANONE], the AC50 at Adenosine receptor A1 was over 10 µM; in assay [1] it was over 10 µM; in assay [2], over 10 µM; in assay [3], over 10 µM; in [4], over 30 µM; on D(1A) dopamine receptor, over 10 µM. The half-maximal activity concentration (AC50) on Melanocortin receptor 3 was over 10 µM; in assay [5] it was over 30 µM; in [6] it was over 30 µM; in assay [7], over 10 µM; in assay [8] it was over 10 µM; on D(3) dopamine receptor, over 30 µM.

Regarding `O=C1Nc2ccc(Cl)cc2[C@@](C#CC2CC2)(C(F)(F)F)O1` [EFAVIRENZ], the AC50 at Adenosine receptor A1 was over 30 µM; in assay [1], over 10 µM; in assay [2] it was 13 µM; in assay [3] it was over 10 µM; in assay [4], over 30 µM; at D(1A) dopamine receptor, over 30 µM. Moreover, the concentration at half-maximal activity (AC50) is over 30 µM at Melanocortin receptor 3; over 30 µM in assay [5]; 15 µM in [6]; over 30 µM in assay [7]; 15 µM in assay [8]; over 30 µM at D(3) dopamine receptor.

Turning to `C[C@H]1CNCCc2ccc(Cl)cc21` [LORCASERIN], the AC50 (at Adenosine receptor A1; in assay [1]; in assay [2]; in assay [3]; in [4]; at D(1A) dopamine receptor) was over 30 µM in each case. For the same compound, the AC50 at Melanocortin receptor 3 is over 30 µM; in assay [5], over 30 µM; in assay [6] it was over 30 µM; in [7], over 30 µM; in assay [8] it was 14 µM; at D(3) dopamine receptor it was over 30 µM.

For `CN1C(C(=O)Nc2ccccn2)=C(O)c2sc(Cl)cc2S1(=O)=O` [LORNOXICAM], the concentration at half-maximal activity (AC50) on Adenosine receptor A1 was over 30 µM; in assay [1], over 10 µM; in assay [2], over 30 µM; in assay [3] it was over 10 µM; in assay [4], over 30 µM; on D(1A) dopamine receptor it was over 10 µM. The AC50 (at Melanocortin receptor 3; in assay [5]; in assay [6]; in [7]; in assay [8]; at D(3) dopamine receptor) was over 30 µM throughout.

`CNC1Cc2ccccc2N(C)c2ccccc21` (configuration not stated) [METAPRAMINE]: the AC50 (at Adenosine receptor A1; in assay [1]; in assay [2]; in [3]; in [4]; on D(1A) dopamine receptor) was over 30 µM in each case. For the same compound, the half-maximal activity concentration (AC50) is over 30 µM at Melanocortin receptor 3; over 30 µM in assay [5]; over 30 µM in assay [6]; over 30 µM in [7]; 16 µM in assay [8]; over 30 µM at D(3) dopamine receptor.

For `COc1ccc(CC(C)(C)NC[C@H](O)c2cc(O)cc3c2OCC(=O)N3)cc1` [OLODATEROL], the concentration at half-maximal activity (AC50) at Adenosine receptor A1 is over 30 µM; in assay [1], over 30 µM; in [2] it was over 30 µM; in assay [3], 5.1 µM; in assay [4], over 30 µM; at D(1A) dopamine receptor, over 30 µM. Moreover, the AC50 at Melanocortin receptor 3 was over 30 µM; in assay [5] it was over 30 µM; in assay [6], 21 µM; in assay [7] it was over 30 µM; in [8], over 30 µM; on D(3) dopamine receptor it was over 30 µM.

With `c1cnc(N2CCN(Cc3ccc4c(c3)OCO4)CC2)nc1` [PIRIBEDIL], the half-maximal activity concentration (AC50) (on Adenosine receptor A1; in assay [1]; in assay [2]; in assay [3]; in [4]; on D(1A) dopamine receptor) was over 30 µM in each case. Moreover, the AC50 on Melanocortin receptor 3 was over 30 µM; in assay [5], over 30 µM; in assay [6] it was over 30 µM; in [7] it was over 30 µM; in assay [8], 18 µM; on D(3) dopamine receptor, 7.1 µM.

As to `COc1ccccc1OCC(O)CN1CCN(CC(=O)Nc2c(C)cccc2C)CC1` (configuration not stated) [RANOLAZINE], the AC50 (at Adenosine receptor A1; in [1]; in [2]; in assay [3]; in assay [4]; at D(1A) dopamine receptor) was over 30 µM throughout. Also, the AC50 on Melanocortin receptor 3 is over 30 µM; in [5], over 30 µM; in [6], over 30 µM; in assay [7], over 30 µM; in assay [8], over 30 µM; on D(3) dopamine receptor, 18 µM.

On to `Cn1nnc2c(C(N)=O)ncn2c1=O` [TEMOZOLOMIDE], for which the AC50 (at Adenosine receptor A1; in assay [1]; in assay [2]; in [3]; in [4]; on D(1A) dopamine receptor) was over 30 µM in each case. The half-maximal activity concentration (AC50) (at Melanocortin receptor 3; in [5]; in assay [6]; in assay [7]; in assay [8]; on D(3) dopamine receptor) was over 30 µM in each case.

On to `O=C(O[C@H]1C[C@H]2CC[C@@H](C1)[N+]21CCCC1)C(O)(c1ccccc1)c1ccccc1` [TROSPIUM], for which the concentration at half-maximal activity (AC50) on Adenosine receptor A1 is over 30 µM; in assay [1], over 30 µM; in assay [2], over 30 µM; in assay [3], 0.0061 µM; in assay [4], 0.0089 µM; at D(1A) dopamine receptor, over 30 µM. Besides, the concentration at half-maximal activity (AC50) (at Melanocortin receptor 3; in assay [5]; in [6]; in assay [7]; in assay [8]; at D(3) dopamine receptor) was over 30 µM throughout.

`Nc1ccn([C@H]2CC[C@@H](CO)O2)c(=O)n1` [ZALCITABINE]: the AC50 was over 10 µM at Adenosine receptor A1; over 10 µM in [1]; over 10 µM in assay [2]; over 10 µM in assay [3]; over 30 µM in assay [4]; over 10 µM at D(1A) dopamine receptor. Also, the concentration at half-maximal activity (AC50) at Melanocortin receptor 3 is over 10 µM; in assay [5], over 30 µM; in assay [6], over 30 µM; in [7] it was over 10 µM; in assay [8], over 10 µM; at D(3) dopamine receptor, over 10 µM.
